In series [1] the target is T1, ALDH1A2 (Homo sapiens, UniProt O94788).
T1 construct: E. coli BL21 (DE3) were transformed with the full-length expression vector of each isoform; His-tag; made in house; host or cells: E. coli BL21 (DE3)
T1 sequence (O94788 1-518): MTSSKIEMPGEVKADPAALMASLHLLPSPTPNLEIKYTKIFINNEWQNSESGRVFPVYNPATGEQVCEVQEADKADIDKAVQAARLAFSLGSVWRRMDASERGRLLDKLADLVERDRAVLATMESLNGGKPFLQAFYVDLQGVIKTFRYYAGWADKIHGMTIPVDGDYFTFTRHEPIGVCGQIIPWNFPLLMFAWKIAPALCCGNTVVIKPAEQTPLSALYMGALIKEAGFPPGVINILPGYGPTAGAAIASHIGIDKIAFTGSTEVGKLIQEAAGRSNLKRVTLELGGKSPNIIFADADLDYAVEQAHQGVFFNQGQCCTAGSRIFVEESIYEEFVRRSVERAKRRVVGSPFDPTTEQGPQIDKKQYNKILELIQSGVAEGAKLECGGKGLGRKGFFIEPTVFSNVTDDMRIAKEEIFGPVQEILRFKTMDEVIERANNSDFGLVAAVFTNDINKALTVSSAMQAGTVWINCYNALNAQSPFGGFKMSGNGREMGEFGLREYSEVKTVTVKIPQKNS
Briefly: Fluorescence signal change of probe with recombinant enzyme (cross reaction assay). The note with it: probe 10 μM; for probe fluorescence intensity (normalized): ALDH1A2 100 μM. Format: binding. From the text: (§1) All five fluorescent compounds were firstly characterized for their solubility in physiological buffer and for their absorbance values. We then performed a 3D analysis using a TECAN SPARK to simultaneously evaluate the excitation and the emission wavelengths, that were supposed to be similar to the curcumin ones[48]. […] For these reasons, we decided to continue the biochemical characterization on Probe 10 and 11 using the selected parameters (Fig. 2). The fluorescent signal changes for both molecules upon binding to the target, were firstly evaluated with recombinant human ALDH1A3. […] To better characterized our fluorescent compounds, we tested their potential cross-reactivity toward the other two isoforms of the ALDH1A subfamily. […] In addition, a wide range of biologically relevant analytes were tested at a concentration of 100 μM in complex with a fixed concentration of 10 μM of the probe (either probe 10 or probe 11), to make sure that no potential off-target signals could affect the analysis. More specifically, we checked if there were abnormal fluorescence signals that could have been contributed by the presence of biologically relevant compounds, (e.g., biologically relevant amino acids), to buffers and molecules commonly used in experimental procedures.
(§2) Based on the values obtained by the 3D analysis, a wide series of biomolecules directly used in the biochemical experiment, both in vitro and in vivo, and listed in Table 1, were tested in complex with a fixed concentration of 10 μM of both probes, to measure any possible cross reaction signal.

The target of series [2] is T2, ALDH1A3 (Homo sapiens, UniProt P47895).
T2 construct: E. coli BL21 (DE3) were transformed with the full-length expression vector of each isoform; His-tag; made in house; host or cells: E. coli BL21 (DE3)
T2 sequence (P47895 1-512): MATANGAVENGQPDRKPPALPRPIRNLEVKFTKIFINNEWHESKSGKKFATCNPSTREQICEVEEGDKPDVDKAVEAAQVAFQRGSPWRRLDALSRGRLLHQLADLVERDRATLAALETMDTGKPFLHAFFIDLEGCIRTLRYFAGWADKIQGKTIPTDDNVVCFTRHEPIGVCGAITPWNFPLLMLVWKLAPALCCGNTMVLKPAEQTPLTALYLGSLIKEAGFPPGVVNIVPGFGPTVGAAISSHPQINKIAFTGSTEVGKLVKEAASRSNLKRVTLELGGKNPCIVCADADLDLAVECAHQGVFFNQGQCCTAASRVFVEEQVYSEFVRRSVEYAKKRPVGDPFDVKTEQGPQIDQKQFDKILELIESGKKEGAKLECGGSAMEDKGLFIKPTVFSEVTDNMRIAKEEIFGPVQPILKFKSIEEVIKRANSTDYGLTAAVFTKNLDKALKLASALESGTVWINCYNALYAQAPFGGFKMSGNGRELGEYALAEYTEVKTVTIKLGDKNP
The series is described as above. Format: binding. The note with it: probe 10 μM; for probe fluorescence intensity (normalized): ALDH1A3 100 μM; for increase in the intensity of the fluorescent signal on addition of ALDH1A3: vs probe alone.
Description: as §1, §2

In series [3] the target is T3, ALDH1A1 (Homo sapiens, UniProt P00352).
T3 construct: E. coli BL21 (DE3) were transformed with the full-length expression vector of each isoform; His-tag; made in house; host or cells: E. coli BL21 (DE3)
T3 sequence (P00352 1-501): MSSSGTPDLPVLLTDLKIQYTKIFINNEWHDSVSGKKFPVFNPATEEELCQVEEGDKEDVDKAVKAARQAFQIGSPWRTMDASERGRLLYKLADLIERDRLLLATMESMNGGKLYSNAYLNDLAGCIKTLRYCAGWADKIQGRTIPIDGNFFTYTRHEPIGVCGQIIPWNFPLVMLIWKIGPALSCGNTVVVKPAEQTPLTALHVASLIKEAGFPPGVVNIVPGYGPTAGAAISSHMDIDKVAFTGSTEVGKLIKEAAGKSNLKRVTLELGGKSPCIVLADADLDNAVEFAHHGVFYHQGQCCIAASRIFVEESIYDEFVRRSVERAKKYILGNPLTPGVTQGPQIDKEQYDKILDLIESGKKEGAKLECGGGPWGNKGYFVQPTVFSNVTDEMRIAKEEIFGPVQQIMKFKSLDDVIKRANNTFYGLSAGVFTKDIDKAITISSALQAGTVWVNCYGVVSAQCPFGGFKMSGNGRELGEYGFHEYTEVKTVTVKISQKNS
Described as above. Format: binding. The note with it: probe 10 μM; for probe fluorescence intensity (normalized): ALDH1A1 100 μM.
Description: as §1, §2

The test system of series [4] is patient-derived glioma cells 3054. Briefly: Cell viability (MTT assay). Format: cell-based, human. Particulars: 3054; 10uM, 72 h. The protocol: (§3) In total, 10 × 10^5 U87MG human glioblastoma, patient-derived glioma cells 3054 and 3060, HEK293T human embryonic kidney, 4T1 murine mammary carcinoma, human fetal astrocytes cell lines were plated in their respective medium and treated for 72 h with our fluorescent probe 10 and 11, solubilized in DMSO in a final concentration of […]. We treated controls with DMSO in the same final concentration and we compared the viability of each treatment to controls. The viability of cells was measured using the 3-(4,5-dimethylthiazol-2-yl)-2,5-diphenyltetrazolium assay (MTT assay)[23].
On the technique in general: Formazan colour is commonly taken as a measure of viable cells.

Series [5] can be described thus: Cell viability (MTT assay). Format: cell-based, human. Particulars: human. The protocol:
as §3

The subject of series [6] is U87MG human glioblastoma. The series is described as follows: Cell viability (MTT assay). Format: cell-based. The note with it: 10uM, 72 h. The protocol:
as §3

Series [7] concerns human fetal astrocytes. The series is described as follows: Cell viability (MTT assay). Particulars: hASTRO; 10uM, 72 h. Format: cell-based. How it is done:
as §3

Series [8] relates to patient-derived glioma cells 3060. Briefly: Cell viability (MTT assay). Format: cell-based, human. Particulars: 3060; 10uM, 72 h. The protocol:
as §3

Series [9] relates to HEK293T human embryonic kidney. The series is described as follows: Cell viability (MTT assay). Format: cell-based. Particulars: 10uM, 72 h. The protocol: as §3

From publication PMC9437101, “Curcumin-based-fluorescent probes targeting ALDH1A3 as a promising tool for glioblastoma precision surgery and early diagnosis” (Communications Biology, 2022) come the findings set out here.

“And” between values parts separate entries of the source, which are not always exact repeats. Identical values can stand only once.

In general, viability refers to the share of living cells, or the viability signal relative to a control. The low end stands for more harm to the cells, the high end for less harm to the cells. With `COc1cc(/C=C/C(O)=C/C(=O)/C=C/c2ccc(OCc3cn(CCOc4ccc(C=O)cc4)nn3)c(OC)c2)ccc1O` [Probe 10], the “probe fluorescence intensity (normalized)” value in series [1] (listed as probe B) is 4.479 and 4.412 and 3.9708; in [2] (listed as probe B) it was 11.108 and 11.7869 and 9.709; in series [3] (listed as probe B), 2.886 and 2.75 and 2.685. In [1], the “reduction of the fluorescence signal with ALDH1A2 compared to ALDH1A3” value is listed as ~4 folds. Besides, the “increase in the intensity of the fluorescent signal on addition of ALDH1A3” value in [2] was “about 12 folds”. For the same compound, the “reduction of the fluorescence signal with ALDH1A1 compared to ALDH1A3” value in [3] is recorded as “about 2 folds”. Moreover, the “% cell viability” value in series [4] was 92.2458% and 92.6485% and 92.3652% and 91.8745% and 92.3458% and 92.5485% and 92.2652%; in [6] it was 87.4968% and 85.4873% and 86.3577% and 86.8785% and 87.5968% and 85.3873% and 86.4577%; in series [7], 80.9182% and 84.1614% and 88.5188% and 85.4535% and 80.8182% and 84.0614% and 88.4188%; in series [8] it was 90.8745% and 90.3258% and 91.3365% and 91.3478% and 90.9745% and 90.4258% and 91.2365%; in series [9], 84.6125% and 86.4467% and 91.2307% and 96.8963% and 84.5125% and 86.3467% and 91.1307%. Further, the viability at 72 h, 10 µM worked out at 96.8% in [5] (HEK293T embryonic kidney cells); 86.8% in series [5] (U87MG glioblastoma cells); 85.3% in series [5] (human fetal astrocytes, hASTRO); 91.4% in [5] (patient-derived glioma cells 3054, 3054); 91.2% in series [5] (patient-derived glioma cells 3060, 3060).
As to `CCOC(=O)Cn1cc(COc2ccc(/C=C/C(=O)/C=C(O)/C=C/c3ccc(O)c(OC)c3)cc2OC)nn1` [Probe 11], the “probe fluorescence intensity (normalized)” value in series [1] (listed as probe A) was 5.638 and 5.434 and 5.428; in series [2] (listed as probe A), 7.871 and 7.494 and 8.003; in [3] (listed as probe A), 4.322 and 4.415 and 4.4337. Besides, in series [1], the “reduction of the fluorescence signal with ALDH1A2 compared to ALDH1A3” value came to 6 folds. The “increase in the intensity of the fluorescent signal on addition of ALDH1A3” value in series [2] is recorded as ~8 folds. Also, the “reduction of the fluorescence signal with ALDH1A1 compared to ALDH1A3” value in series [3] came to 4 folds.
